Measurements taken from patent US4661596A, “Quinolinyl (or pyridinyl) methoxy substituted naphthalene compounds as antiallergic agents” (American Home Products Corporation, priority 1985, dated 1987).

Tests used:
[1] = system: LTD4 induced bronchoconstriction; assay: in vivo inhibition of LTD4-induced bronchospasm in guinea pigs; parameters: species or system guinea pig (male Hartley); details: 50 mg/kg intraduodenal; 10 minutes before induction of bronchospasm by LTD4; average of 6 experiments
[2] = system: synthesis of 5-HETE by rat glycogen-elicited polymorphonuclear leukocytes; assay: inhibition of 5-HETE synthesis by rat glycogen-elicited polymorphonuclear leukocytes; type: cell-based, rat (female Wistar); details: Leukocyte; 50 μM unless otherwise stated; rat PMN, A23187 (10 μM) and [14C] arachidonic acid, 10 minutes preincubation
Description: This is especially true with respect to 5,12-diHETE, which is also denoted as LTB4 [see Ford-Hitchinson, J. Roy. Soc. Med., 74, 831 (1981)]. The assay of this Example measures the ability of the compounds of the invention to inhibit the synthesis of 5-HETE by rat glycogen-elicited polymorphonuclear leukocytes.
The array is carried out as follows:
Peritoneal PMN are obtained from female Wistar rats (150-250 g) that received an i.p. injection of 6% glycogen (10 mL). After 24 hours, rats are killed by CO2 asphyxiation and peritoneal cells are harvested by peritoneal lavage using Ca^++ and Mg^++ free Hanks' balanced salt solution (HBSS). The peritoneal exudate is centrifuged at 400 g for 10 minutes. After centrifugation, the lavaged fluid is removed and the cell pellet is resuspended in HBSS containing Ca^++ and Mg^++ and 10 mM L-cysteine at a concentration of 2×10^7 cells/mL. To 1 mL portions of cell suspension, test drugs or vehicle are added and incubated at 37° C. for 10 minutes. Following this preincubation, the calcium ionophore (10 μM), A23187, is added together with 0.5 μCi [^14 C] arachidonic acid and further incubated for 10 minutes. The reaction is stopped by the addition of ice cold water (3 mL) and acidifying to pH 3.5. Lipoxygenase products are then extracted twice into diethyl ether. The pooled ether extracts are evaporated to dryness under nitrogen and the residue is redissolved in a small volume of methanol and spotted on aluminum backed pre-coated thin layer chromatographic plates. The samples are then co-chromatographed with authentic reference 5-HETE in the solvent system-hexane:ether:acetic acid (50:50:3). After chromatography, the areas associated with 5-HETE standard are identified by autoradiography, cut out and quantitated by liquid scintillation.
Results are expressed as % inhibition of [^14 C]5-HETE synthesis. [formula]
Testing compounds of the invention in this assay the following results are obtained, where the concentration of the compounds tested is 50 μM unless otherwise stated.

Row | Compound | % Inhibition (Statistical Average) Overflow Volume at 5 min. [1] | inhibition at 50 µM [2]
1 | Nc1ccc2ccc(OCc3ccc4ccccc4n3)cc2c1 [Example 7, 7-(2-quinolinylmethoxy)-2-naphthalenamine] | 88.7% | > 50%
2 | COc1ccc2ccc(OCc3ccc4ccccc4n3)cc2c1 [Example 3, 2-[[(7-methoxy-2-naphthalenyl)oxy]methyl]quinoline] |  | > 50%
3 | Oc1ccc2ccc(OCc3ccc4ccccc4n3)cc2c1 [Example 2, 7-(2-quinolinylmethoxy)-2-naphthalenol] |  | > 50%
4 | Oc1ccc2ccc(OCc3nc4ccccc4s3)cc2c1 [Example 4, 7-(2-benzothiazolylmethoxy)-2-naphthalenol] |  | > 50%
5 | C=C1CCCc2ccc(OCc3ccc4ccccc4n3)cc21 [Example 9, 2-[[(5,6,7,8-tetrahydro-8-methylene-2-naphthalenyl)oxy]methyl]quinoline] |  | > 50%
6 | OC1CCCc2ccc(OCc3ccc4ccccc4n3)cc21 (stereo not shown) [Example 1, 1,2,3,4-Tetrahydro-7-(2-quinolinylmethoxy)-1-naphthalenol] | 56.1% | > 50%
7 | Oc1ccc2ccc(OCc3ccccn3)cc2c1 [Example 5, 7-(2-pyridinylmethoxy)-2-naphthalenol] |  | > 50%
8 | O=S(=O)(Nc1ccc2ccc(OCc3ccc4ccccc4n3)cc2c1)C(F)(F)F [Example 10, N-[7-(2-quinolinylmethoxy)-2-naphthalenyl]trifluoromethane sulfonamide] | 99.0% | 
9 | CCS(=O)(=O)Nc1ccc2ccc(OCc3ccc4ccccc4n3)cc2c1 [Example 8, N-[7-(2-quinolinylmethoxy)-2-naphthalenyl]ethane sulfonamide] | 90.6% | > 50%
10 | Nc1cccc2ccc(OCc3ccc4ccccc4n3)cc12 [Example 6, 7-(2-quinolinylmethoxy)-1-naphthalenamine] |  | > 50%
